From patent US7538083B2, “Compositions and methods for the potentiation of immune responses against target antigens” (Intercell AG, priority 2003, dated 2009)
“Also recorded” adds a separate entry of the source.

What was measured:
[1] = test system: malaria mimetic UK39 (serum IgG against it); assay: UK39 ELISA of mouse sera after immunization with UK39 IRIV with or without melittin; type: in vivo; conditions: Balb/c mice, UK39 IRIV (20 μg UK39) + 10 μg melittin; sera day 21 and 35, IgG ELISA read at 492 nm
Description: Balb/c mice were immunized with 100 μl PBS containing: the malaria mimetic UK39 (20 μg UK39) in combination with an IRIV with or without 10 μg Melittin. For the UK39 ELISA, ELISA plates were coated over night at 4° C. with 10 μg/ml UK39 in PBS. After washing with PBS 0.05% Tween20 plates were blocked with 5% dry milk in PBS 2 h at 37° C. Mouse sera from day 21 and 35 were initially diluted 1:10 and titrated in serial 1:2 dilutions in PBS 0.05% Tween20 0.5% dry milk. After 2 h incubation at 37° C. plates were washed and incubated with goat […]-mouse IgG HRP Ab (BD Bioscience) (1:5000 in PBS 0.05% Tween20 0.5% dry milk) 1 h 37° C. Plates were developed with OPD-substrate (OPD (O-Phenylenediamine tablets, Fluka, Switzerland, 1 tablet in 50 ml citrate buffer+50 μl H2O2) for 30 min. The reaction was stopped with 1 M H2SO4 and plates were read at 492 nm.
UK39 IRIV: 4 mg UK39, 4 mg influenza A/Singapore, 32 mg phosphatidylcholine (PC) and 8 mg phosphatidylethanolamine (PE) were resuspended in 4 ml 100 mM OEG in PBS (OEG-PBS), sonicated for 1 min and centrifugated for 1 h at 100′000×g at 20° C. […]
UK39 ELISA: ELISA plates were coated over night at 4° C. with 10 μg/ml UK39 in PBS. […] Plates were developed with OPD-substrate (OPD (O-Phenylendiamine tablets, Fluka, Switzerland, 1 tablet in 50 ml citrate buffer+50 μl H2O2) for 30 min. The reaction was stopped with 1 M H2SO4 and plates were read at 492 nm.

[2] = test system: OVA257-64 peptide specific IFNγ+ CD8+ T cells; design: species or system C57Bl/6 mice; conditions: mouse, in vivo
[3] = test system: IFNγ+ CD8+ T cells specific for T4 peptide VVYDFLKCM (Kb/T404-412); assay: Splenic T4-specific IFNγ+ CD8+ T cell frequency after i.m. vaccination with T4/melittin-derived fusion peptide with or without ODN; type: in vivo, C57BL/6 (B6) mice; conditions: B6 mice, 35 nmol i.m.; for dependence of adjuvant activity on CpG motifs in the ODN: NSS+ ODN-1982 (no CpG) versus ISS+ ODN-1826 (CpG)
Text: The adjuvant activity of the melittin-derived peptide thus acts synergistically even with oligodeoxynucleotides that lack any immunostimulatory sequences. C57BL/6 (B6) mice were either not immunized (group 1) or vaccinated i.m. with 35 nmol of peptides alone (group 2) or mixed with oligodeoxynucleotide (group 3), not containing (A; NSS^+ ODN-1982; SEQ ID NO: 7), or containing (B; ISS^+ ODN-1826; SEQ ID NO: 6) CpG motifs. Spleen cells obtained from immune mice 12 days post vaccination were restimulated ex vivo with the T4 peptide VVYDFLKCM (K^b/T404-412, SEQ ID NO: 4). Mean number of specific IFNγ^+ CD8^+ T cells/10^5 CD8^+ T cells±SD (of 6 mice per group) averaged from two independent experiments are shown.
Fusion of a sample antigen (here, T4 peptide) to the melittin-derived peptide and binding ODN to them creates potent immunogens for CD8^+ T cells. A sample target antigen, the SV40-derived T4 peptide T404-417 VVYDFLKCMVYNIP (SEQ ID NO: 5) was fused to a duplicated amino acid sequence derived from melittin (KRKRQKRKRQ, SEQ ID NO: 2). B6 mice were vaccinated i.m. with 35 nmol of these peptides alone (group 2), or mixed with ODN (group 3), not containing (A; NSS+ ODN-1982), or containing (B; ISS+ ODN-1826) CpG motifs (FIG. 1). Spleen cells obtained from immune mice 12 days post-vaccination were restimulated ex vivo with the T4 peptide VVYDFLKCM (SEQ ID NO: 4) (Kb/T404-412). Mean numbers of specific IFNγ^+ CD8^+ T cells/10^5 CD8^+ T cells±SD (of 6 mice per group) averaged from two independent experiments are shown.
C57BL/6JBom (B6) mice (H-2b) were bred and kept under standard pathogen-free conditions in the animal colony of Ulm University (Ulm, Germany). Male/female mice were used at 12-16 wks of age. The preparation of cationic peptide/ODN vaccines CpG containing ODN-1826 ([…]; ISS-1826, SEQ ID NO: 6) and its control ODN-1982 ([…]; NSS-1982, SEQ ID NO: 7) were obtained from MWG (Ebersberg, Germany). ODN were synthesized with phosphorothioate backbones. […] The number of CD8^+ IFNγ^+ T cells per 10^5 splenic CD8^+ T cells was determined by FCM analyses.

## CC[C@H](C)[C@H](NC(=O)CN)C(=O)NCC(=O)N[C@@H](C)C(=O)N[C@H](C(=O)N[C@@H](CC(C)C)C(=O)N[C@@H](CCCCN)C(=O)N[C@H](C(=O)N[C@@H](CC(C)C)C(=O)N[C@H](C(=O)N[C@H](C(=O)NCC(=O)N[C@@H](CC(C)C)C(=O)N1CCC[C@H]1C(=O)N[C@@H](C)C(=O)N[C@@H](CC(C)C)C(=O)N[C@H](C(=O)N[C@@H](CO)C(=O)N[C@@H](Cc1c[nH]c2ccccc12)C(=O)N[C@H](C(=O)N[C@@H](CCCCN)C(=O)N[C@@H](CCCNC(=N)N)C(=O)N[C@@H](CCCCN)C(=O)N[C@@H](CCCNC(=N)N)C(=O)N[C@@H](CCC(N)=O)C(=O)N[C@@H](CCC(N)=O)C(N)=O)[C@@H](C)CC)[C@@H](C)CC)[C@@H](C)O)[C@@H](C)O)C(C)C)C(C)C [melittin]
[1]
  humoral immune response (B cell immunity) against antigen UK39 coupled to IRIV: adjuvant effect; also recorded: further enhanced

## CKRKRQKRKRQSIINFEKL [Cys-Mel-OVA257-64]
[2]
  adjuvant effect in combination with IRIVs (peptide specific IFNγ+ CD8+ T cells): further potentiated by its combination with IRIVs; also recorded: further synergizes with IRIVs

## KRKRQKRKRQ (Synthetic peptide derived from Apis mellifera)
[3]; combined with target antigen T4 and oligodeoxynucleotide, spleen cells 12 days post vaccination restimulated ex vivo with T4 peptide
  adjuvant activity (specific IFNγ+ CD8+ T cells/10^5 CD8+ T cells): significant adjuvant activity
[3]
  dependence of adjuvant activity on CpG motifs in the ODN: not dependent on the presence of CpG sequences in the ODN
[3]; listed as KRKRQKRKRQ
  dependence of adjuvant activity on CpG motifs in the ODN: does not depend on the presence of CpG motifs
